Measurements published in patent publication US8466279B2, “Polymorphs of efavirenz” (Hetero Drugs Limited, priority 2004, dated 2013).

How the values were obtained:
[1] = dissolution properties compared with the known forms; format: physicochemical
[2] = stability of the crystalline form; format: physicochemical

dissolution properties [1]	stability over the time [2]	stability relative to reported forms ([2]; versus Form I, Form II, Form III, Form 1, Form 2, Form 3, Form 4 and Form 5)	Structure (SMILES)
better dissolution properties	–	–	O=C1Nc2ccc(Cl)cc2[C@@](C#CC2CC2)(C(F)(F)F)O1 [amorphous efavirenz, (4S)-6-chloro-4-(cyclopropylethynyl)-1,4-dihydro-4-(trifluoromethyl)-2H-3,1-benzoxazin-2-one]
–	stable over the time	at least as stable as the reported forms	O=C1Nc2ccc(Cl)cc2[C@@](C#CC2CC2)(C(F)(F)F)O1 [efavirenz form H1, (4S)-6-chloro-4-(cyclopropylethynyl)-1,4-dihydro-4-(trifluoromethyl)-2H-3,1-benzoxazin-2-one]
